Results: patent publication US20100143507A1, “CARBOXYLIC ACID INHIBITORS OF HISTONE DEACETYLASE, GABA TRANSAMINASE AND SODIUM CHANNEL” (AUSPEX PHARMACEUTICALS, INC., priority 2008, published 2010)

Assay: In vitro liver microsomal stability assay
Assay type: in vitro ADME
Settings: 1 mg per mL liver microsome protein, NADPH-generating system, 1 μM test compound, 37° C., 0-60 minutes, LC/MS/MS
Protocol: Liver microsomal stability assays were conducted with 1 mg per mL liver microsome protein with an NADPH-generating system (2.2 mM NADPH, 25.6 mM glucose 6-phosphate, 6 units per mL glucose 6-phosphate dehydrogenase and 3.3 mM magnesium chloride) in 2% sodium bicarbonate. Test compounds were prepared as solutions in 20% acetonitrile-water and added to the assay mixture (final assay concentration 1 μM) and incubated at 37° C. Final concentration of acetonitrile in the assay should be <1%. Aliquots (50 μL) were taken out at times 0, 15, 30, 45, and 60 minutes, and diluted with ice cold acetonitrile (200 μL) to stop the reactions. Samples were centrifuged at 12,000 RPM for 10 minutes to precipitate proteins. Supernatants were transferred to microcentrifuge tubes and stored for LC/MS/MS analysis of the degradation half-life of the test compounds. […] In certain embodiments, the increase in degradation half-life is at least 5%; at least 10%; or at least 15%.

degradation half-life as compared to the non-isotopically enriched drug: increased degradation half-life
Compound: [2H]C([2H])([2H])C([2H])([2H])C([2H])([2H])C([2H])(C(=O)O)C([2H])([2H])C([2H])([2H])C([2H])([2H])[2H] [valproic acid-d15]
